In one assay the target is MRGPRX4 (Homo sapiens, UniProt Q96LA9). Nature of the assay: MRGPRX4 activation, Fluo-8 Ca2+ FLIPR assay in HEK293T cells stably expressing MRGPRX4. The assay is classed as cell-based. Details: key to MRGPRX4 activation, Average / MRGPRX4 activation, Ave.: fluorescence change dF/F0. To be noted: for EC50: MRGPRX4 activation, Ca2+ fluorescence, no activation in tested range reported as III, read-out: Activity (EC50 μM). A digest of the protocol:
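Cells seeded overnight to >95% confluence, loaded 40-60 min at room temperature with 2 μM Fluo-8 AM, then kept in HHBS. Baseline read 30 s, compound added, signal followed 150 s more.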

Another assay deals with T1, human FXR (NR1H4) (Homo sapiens, UniProt Q96RI1).
T1 sequence (Q96RI1 1-476 isoform Q96RI1-1): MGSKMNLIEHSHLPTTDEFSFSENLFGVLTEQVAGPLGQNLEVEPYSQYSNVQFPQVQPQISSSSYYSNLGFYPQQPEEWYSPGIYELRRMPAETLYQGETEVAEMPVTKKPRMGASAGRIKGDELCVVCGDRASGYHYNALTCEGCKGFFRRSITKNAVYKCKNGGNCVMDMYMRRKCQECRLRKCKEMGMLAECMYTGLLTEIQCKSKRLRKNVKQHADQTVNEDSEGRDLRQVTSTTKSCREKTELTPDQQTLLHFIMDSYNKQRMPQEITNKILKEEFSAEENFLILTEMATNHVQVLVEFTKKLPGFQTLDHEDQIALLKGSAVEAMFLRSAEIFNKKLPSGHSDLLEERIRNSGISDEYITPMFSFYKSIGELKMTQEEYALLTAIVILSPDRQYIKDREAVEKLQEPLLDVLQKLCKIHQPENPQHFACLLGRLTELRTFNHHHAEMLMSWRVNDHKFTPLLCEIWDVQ
Nature of the assay: Human FXR (NR1H4) agonist assessment, FXRE-NanoLuc reporter in HEK293T cells. The assay is classed as cell-based. To be noted: FXR activation, HEK293T FXRE-NanoLuc reporter, 24 hr; for EC50: read-out: EC50. A digest of the protocol: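 HEK293T cells stably expressing human FXR with an FXRE-NanoLuc reporter were treated with compounds for 24 hr at 37 °C, with 0.01% DMSO as negative control. Medium was read for luminescence after 5 min with coelenterazine. EC50 was fitted by sigmoid to concentration-response data.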

MRGPRX4, sequence (Q96LA9 whole entry): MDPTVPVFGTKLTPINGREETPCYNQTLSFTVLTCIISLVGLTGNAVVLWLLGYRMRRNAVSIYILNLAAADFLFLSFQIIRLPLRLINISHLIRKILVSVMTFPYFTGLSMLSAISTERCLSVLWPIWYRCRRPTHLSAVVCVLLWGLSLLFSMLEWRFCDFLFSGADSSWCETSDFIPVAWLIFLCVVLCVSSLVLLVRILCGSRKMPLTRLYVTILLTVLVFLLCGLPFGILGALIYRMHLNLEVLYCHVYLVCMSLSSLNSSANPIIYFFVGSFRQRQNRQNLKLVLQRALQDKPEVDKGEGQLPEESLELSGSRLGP

With `CC[C@H]1[C@@H](O)[C@@H]2[C@H](CC[C@]3(C)[C@@H]([C@H](C)CCNC(=O)NS(=O)(=O)c4ccc(C5(CO)CCCC5)cc4)CC[C@@H]23)[C@@]2(C)CCCC[C@@H]12` [5-21], the “MRGPRX4 activation, fluorescence change (dF/F0), Average” value (shortened to “MRGPRX4 activation, fluorescence change”) at MRGPRX4 (Conc. (Log[M]) −4.0) amounted to 0.018; at MRGPRX4 (Conc. (Log[M]) −4.5), 0.016; at MRGPRX4 (Conc. (Log[M]) −5.0), 0.020; on MRGPRX4 (Conc. (Log[M]) −5.4) it was 0.018; on MRGPRX4 (Conc. (Log[M]) −5.9) it was 0.018; on MRGPRX4 (Conc. (Log[M]) −6.4), 0.016. The “MRGPRX4 activation, fluorescence change” value came out at 0.018 at MRGPRX4 (Conc. (Log[M]) −6.9), 0.016 on MRGPRX4 (Conc. (Log[M]) −7.3), 0.020 on MRGPRX4 (Conc. (Log[M]) −7.8) and 0.018 at MRGPRX4 (Conc. (Log[M]) −8.3). Also, the EC50 on MRGPRX4 was greater than 100 µM; at human FXR (NR1H4), less than 1000 nM. Besides, the “Efficacy (maximum measured induction of NanoLuc, normalized to CDCA set as 100%)” value at human FXR (NR1H4) is listed as “C (100%<efficacy <=300%)”.
On to `CC[C@H]1[C@@H](O)[C@@H]2[C@H](CC[C@]3(C)[C@@H]([C@H](C)CCNC(=O)NS(=O)(=O)c4ccc(C(C)(CO)CO)cc4)CC[C@@H]23)[C@@]2(C)CCCC[C@@H]12` [5-22], for which the “MRGPRX4 activation, fluorescence change” value at MRGPRX4 (Conc. (Log[M]) −4.0) worked out at 0.020; on MRGPRX4 (Conc. (Log[M]) −4.5) it was 0.018; at MRGPRX4 (Conc. (Log[M]) −5.0), 0.013; at MRGPRX4 (Conc. (Log[M]) −5.4), 0.013; at MRGPRX4 (Conc. (Log[M]) −5.9) it was 0.011; at MRGPRX4 (Conc. (Log[M]) −6.4), 0.016. Moreover, the “MRGPRX4 activation, fluorescence change” value is 0.016 at MRGPRX4 (Conc. (Log[M]) −6.9), 0.018 at MRGPRX4 (Conc. (Log[M]) −7.3), 0.014 on MRGPRX4 (Conc. (Log[M]) −7.8) and 0.016 on MRGPRX4 (Conc. (Log[M]) −8.3). The EC50 on MRGPRX4 was greater than 100 µM; at human FXR (NR1H4) it was less than 1000 nM. Moreover, the “Efficacy (maximum measured induction of NanoLuc, normalized to CDCA set as 100%)” value on human FXR (NR1H4) is given as “C (100%<efficacy <=300%)”.
Turning to `CC[C@H]1[C@@H](O)[C@@H]2[C@H](CC[C@]3(C)[C@@H]([C@H](C)CCNC(=O)NS(=O)(=O)c4cc(F)ccc4F)CC[C@@H]23)[C@@]2(C)CCCC[C@@H]12` [5-23], the “MRGPRX4 activation, Ave.” value at MRGPRX4 (E3-7, Conc. (Log[M]) −4) is given as −0.027; on MRGPRX4 (E3-7, Conc. (Log[M]) −4.5), −0.027; at MRGPRX4 (E3-7, Conc. (Log[M]) −5) it was −0.014; at MRGPRX4 (E3-7, Conc. (Log[M]) −5.5) it was −0.054; at MRGPRX4 (E3-7, Conc. (Log[M]) −6), −0.041; at MRGPRX4 (E3-7, Conc. (Log[M]) −7), 0.000. Further, the EC50 on MRGPRX4 was greater than 100 µM; at human FXR (NR1H4), less than 1000 nM. The “Efficacy (maximum measured induction of NanoLuc, normalized to CDCA set as 100%)” value on human FXR (NR1H4) is listed as “A (efficacy >400%)”.
For the molecule `CC[C@H]1[C@@H](O)[C@@H]2[C@H](CC[C@]3(C)[C@@H]([C@H](C)CCNC(=O)NS(=O)(=O)c4cc(F)cc(F)c4)CC[C@@H]23)[C@@]2(C)CCCC[C@@H]12` [5-24], the “MRGPRX4 activation, fluorescence change” value on MRGPRX4 (Conc. (Log[M]) −4.0) is given as 0.021; at MRGPRX4 (Conc. (Log[M]) −4.5), 0.012; on MRGPRX4 (Conc. (Log[M]) −5.0), 0.021; on MRGPRX4 (Conc. (Log[M]) −5.4), 0.019; on MRGPRX4 (Conc. (Log[M]) −5.9), 0.011; at MRGPRX4 (Conc. (Log[M]) −6.4), 0.013. The “MRGPRX4 activation, fluorescence change” value is given as 0.013 at MRGPRX4 (Conc. (Log[M]) −6.9), 0.013 at MRGPRX4 (Conc. (Log[M]) −7.3), 0.008 on MRGPRX4 (Conc. (Log[M]) −7.8) and 0.011 at MRGPRX4 (Conc. (Log[M]) −8.3). The “Efficacy (maximum measured induction of NanoLuc, normalized to CDCA set as 100%)” value at human FXR (NR1H4) is recorded as “B (300%<efficacy <=400%)”. For the same molecule, the concentration giving a half-maximal response (EC50) on human FXR (NR1H4) is less than 1000 nM.

As a reminder, the EC50 is the midpoint of the concentration-response curve.

The values are drawn from patent US20260116910A1, “POLYCYCLIC COMPOUNDS AND METHODS THEREOF” (HEPAITECH (BEIJING) BIOPHARMA TECHNOLOGY CO., LTD., priority 2021, published 2026).
